Laboratory results: patent US9637495B2, “CGRP receptor antagonists” (Eli Lilly and Company, priority 2015, dated 2017)

system: CGRP receptor; assay: Capsaicin-induced dermal blood flow (laser Doppler imaging) in non-human primates; assay type: in vivo; details: 3 mg/kg orally, 90 min prior to capsaicin, cynomolgus NHP, compared to vehicle, p<0.008
Text: Capsaicin-induced dermal blood flow (DBF) is used as a target engagement biomarker to assess CGRP receptor activity in nonhuman primates (NHPs). Methods are adapted from earlier published procedures [Hershey et al., Regulatory Peptides, Volume 127, Issue 1-3, pp. 71-77, 2005].
Animal studies may be performed under protocols approved by the Covance Institutional Animal Care and Use Committee. Cynomolgus NHPs may be used given the close homology between NHP and human CGRP receptor. The study population may include healthy, CGRP antagonist naive cynomolgus NHP males weighing ˜3-4 kg.
Cynomolgus NHPs are enrolled in the study based on prescreening for capsaicin responsiveness. […] NHPs are used in a cross over design in which all NHPs received all doses after a two week wash-out period. Total n=10 NHPs per group.
NHPs each receive vehicle, 3, 10 and 30 mg/kg of the CGRP receptor antagonist Example 1 administered orally (10% Acacia w/v/0.05% Antifoam 1510-US emulsion v/v/in purified water) 90 min prior to the capsaicin administration in the laser Doppler imaging (LDI) experiment.
Animals are fasted overnight prior to each capsaicin challenge. On the day of the experiment, the NHPs are anesthetized with 1% Isoflurane for approximately 30 min prior to scanning. The NHPs are placed in a quiet, temperature-controlled room supine on a warm small surgical blanket and the shaved arm is placed on a heating pad under the laser head. Three neoprene O-rings (size=8 mm ID) are placed on the NHP forearm, approximately 1 cm apart. During a 30-minute stabilization period, preliminary scans are obtained to confirm correct positioning of the O-rings. […]
LDI repeat scans are analyzed using Moor software v.5.3 (Moor Instruments, Wilmington, Del.) by region of interest signal analysis, and Microsoft Excel worksheets are used for averaging the signal from the regions of interest at a given time point. […] Analyzed data is entered into Graphpad PRISM® 4.0 for graphing and a repeated measurement mixed-effect model in SAS® 9.1 is used for statistical analysis. Data is expressed as mean+/−SEM.

Row | SMILES | group mean inhibition of capsaicin-induced dermal blood flow increase [%]
1 | Cc1cc(CNC(=O)c2ccc([C@@H](C)[C@@]3(C)C(=O)Nc4ncccc43)cn2)cc(C)n1 [Example 1, N-[(2,6-dimethylpyridin-4-yl)methyl]-5-{(1R)-1-[(3R)-3-methyl-2-oxo-2,3-dihydro-1H-pyrrolo[2,3-b]pyridin-3-yl]ethyl}pyridine-2-carboxamide] | 32.1

same assay, conditions: 10 mg/kg orally, 90 min prior to capsaicin, cynomolgus NHP, compared to vehicle, p<0.0004

Row | SMILES | group mean inhibition of capsaicin-induced dermal blood flow increase [%]
2 | Cc1cc(CNC(=O)c2ccc([C@@H](C)[C@@]3(C)C(=O)Nc4ncccc43)cn2)cc(C)n1 [Example 1, N-[(2,6-dimethylpyridin-4-yl)methyl]-5-{(1R)-1-[(3R)-3-methyl-2-oxo-2,3-dihydro-1H-pyrrolo[2,3-b]pyridin-3-yl]ethyl}pyridine-2-carboxamide] | 46.1

same assay, conditions: 30 mg/kg orally, 90 min prior to capsaicin, cynomolgus NHP, compared to vehicle, p<0.00002

Row | SMILES | group mean inhibition of capsaicin-induced dermal blood flow increase [%]
3 | Cc1cc(CNC(=O)c2ccc([C@@H](C)[C@@]3(C)C(=O)Nc4ncccc43)cn2)cc(C)n1 [Example 1, N-[(2,6-dimethylpyridin-4-yl)methyl]-5-{(1R)-1-[(3R)-3-methyl-2-oxo-2,3-dihydro-1H-pyrrolo[2,3-b]pyridin-3-yl]ethyl}pyridine-2-carboxamide] | 58.8

target: T1, human CGRP receptor (Homo sapiens, UniProt O60894+Q16602); assay: Inhibition of cAMP production by CGRP receptor antagonists in SK-N-MC cells (HTRF); assay type: cell-based; details: SK-N-MC neuroblastoma cells, human CGRP 0.8 nM as agonist, Kb estimated as agonist-corrected IC50, mean ± SEM; read-out: Kb hCGRP
T1 construct: SK-N-MC neuroblastoma cells (ATCC® HTB-10™) that endogenously express the hCGRP receptor; host or cells: SK-N-MC neuroblastoma cells
T1 sequence (Q16602 23-461): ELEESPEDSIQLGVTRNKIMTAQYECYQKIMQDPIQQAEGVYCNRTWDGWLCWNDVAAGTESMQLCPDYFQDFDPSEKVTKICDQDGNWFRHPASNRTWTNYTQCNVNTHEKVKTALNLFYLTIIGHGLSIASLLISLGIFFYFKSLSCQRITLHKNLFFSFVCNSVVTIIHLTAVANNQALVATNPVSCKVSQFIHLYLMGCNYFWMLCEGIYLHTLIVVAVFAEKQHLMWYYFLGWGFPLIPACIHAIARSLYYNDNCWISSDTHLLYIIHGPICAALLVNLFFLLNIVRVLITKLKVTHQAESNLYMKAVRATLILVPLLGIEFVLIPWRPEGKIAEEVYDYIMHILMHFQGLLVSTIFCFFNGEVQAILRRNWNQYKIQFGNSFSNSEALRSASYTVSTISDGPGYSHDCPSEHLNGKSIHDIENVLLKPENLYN
T1 sequence (O60894 27-148): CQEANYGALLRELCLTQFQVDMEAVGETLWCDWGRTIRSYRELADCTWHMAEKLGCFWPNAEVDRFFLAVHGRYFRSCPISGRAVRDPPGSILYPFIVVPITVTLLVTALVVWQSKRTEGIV
Text: Inhibition of cAMP Production by CGRP Receptor Antagonists
The hCGRP (human calcitonin gene-related peptide) receptor is functionally coupled to the Gαs proteins. Stimulation of hCGRP results in an increased synthesis of intracellular cAMP and can be blocked by the addition of receptor antagonists. Receptor activity is thus a reflection of the amount of cAMP present within cells which can be detected using standard in vitro technology.
Cultured SK-N-MC neuroblastoma cells (ATCC® HTB-10™) that endogenously express the hCGRP receptor are grown in Eagle's Minimum essential medium (HYCLONE™) supplemented with 10% heat-inactivated Fetal bovine serum (FBS; GIBCO®), Non-Essential Amino Acids (GIBCO®), 1 mM sodium pyruvate, 2 mM L-glutamine, 100 U/mL of penicillin, and 10 μg/mL of streptomycin to about 70% confluency. After providing fresh medium, the cells are incubated at 37° C. overnight. On the day of the assay, cells are detached using ACCUTASE® (MP Biomedicals), resuspended in assay buffer [Hank's Balanced Salt Solution/Dulbecco's phosphate-buffered saline with […] each of CaCl2 and MgCl2 mixed 1:2, 3.3 mM 4-(2-hydroxyethyl)-1-piperazineethanesulfonic acid, 0.03% bovine serum albumin, and 0.5 mM 1-methyl-3-isobutylxanthine (as inhibitor of […])], and seeded 3-5K/well into 384-well, poly-D-lysine coated white plates (BD Biosciences).
For dose-response studies, compounds are serially diluted 1:3 in dimethyl sulfoxide and then 1:10 into assay buffer. Human CGRP (0.8 nM; Bachem) as a receptor-specific agonist for the hCGRP receptor is mixed with diluted compound and added to the cells as the challenge stimulant at their EC80 concentrations.
The amount of intracellular cAMP is quantitated using HTRF technology (Cisbio) as per vendor instructions. Briefly, cAMP-d2 conjugate and anti-cAMP-cryptate conjugate in lysis buffer are incubated with the treated cells at room temperature for 90 min. The HTRF signal is immediately detected using an ENVISION® plate reader (Perkin-Elmer) to calculate the ratio of fluorescence at […]. The raw data are converted to cAMP amount (pmole/well) using a cAMP standard curve generated for each experiment. Relative EC50 values are calculated from the top-bottom range of the concentration response curve using a four-parameter logistic curve fitting program (ACTIVITYBASE® v5.3.1.22 or GENEDATA SCREENER® v12.0.4), and Kb values are estimated as agonist-corrected IC50 values using the equation: Kb=(IC50)/[1+([Agonist]/EC50)]. Estimated Kb values are reported as mean values±SEM, averaged from the number of runs (n).

Row | SMILES | Kb [nM]
4 | Cc1cc(CNC(=O)c2ccc([C@@H](C)[C@@]3(C)C(=O)Nc4ncccc43)cn2)cc(C)n1 [Example 1, N-[(2,6-dimethylpyridin-4-yl)methyl]-5-{(1R)-1-[(3R)-3-methyl-2-oxo-2,3-dihydro-1H-pyrrolo[2,3-b]pyridin-3-yl]ethyl}pyridine-2-carboxamide] | 0.0465 ± 0.0097
5 | Cc1cc(CNC(=O)c2ccc([C@@H](C)[C@@]3(C)C(=O)Nc4ncccc43)cc2)cc(C)n1 [Example 2, N-[(2,6-dimethyl-4-pyridyl)methyl]-4-[(1R)-1-[(3R)-3-methyl-2-oxo-1H-pyrrolo[2,3-b]pyridin-3-yl]ethyl]benzamide] | 0.0366 ± 0.0154
6 | CCc1cc(CNC(=O)c2ccc([C@@H](C)[C@@]3(C)C(=O)Nc4ncccc43)cc2)cc(C)n1 [Example 3, N-[(2-ethyl-6-methylpyridin-4-yl)methyl]-4-{(1R)-1-[(3R)-3-methyl-2-oxo-2,3-dihydro-1H-pyrrolo[2,3-b]pyridin-3-yl]ethyl}benzamide] | 0.0173
7 | Cc1cc(CNC(=O)c2ccc([C@@H](C)[C@@]3(C)C(=O)Nc4ncccc43)cc2)cc(C2CC2)n1 [Example 4, N-[(2-cyclopropyl-6-methyl-4-pyridyl)methyl]-4-[(1R)-1-[(3R)-3-methyl-2-oxo-1H-pyrrolo[2,3-b]pyridin-3-yl]ethyl]benzamide] | 0.0266
8 | Cc1cc(CNC(=O)c2ccc([C@@H](C)[C@@]3(C)C(=O)Nc4ncccc43)cc2)cc(C2CCC2)n1 [Example 5, N-[(2-cyclobutyl-6-methylpyridin-4-yl)methyl]-4-{(1R)-1-[(3R)-3-methyl-2-oxo-2,3-dihydro-1H-pyrrolo[2,3-b]pyridin-3-yl]ethyl}benzamide] | 0.00696
9 | Cc1cc(CNC(=O)c2ccc([C@@H](C)[C@@]3(C)C(=O)Nc4ncccc43)cc2)cc(C2CCCC2)n1 [Example 6, N-[(2-cyclopentyl-6-methylpyridin-4-yl)methyl]-4-{(1R)-1-[(3R)-3-methyl-2-oxo-2,3-dihydro-1H-pyrrolo[2,3-b]pyridin-3-yl]ethyl}benzamide] | 0.0182
10 | Cc1cc(C)nc(CNC(=O)c2ccc([C@@H](C)[C@@]3(C)C(=O)Nc4ncncc43)cc2)c1 [Example 7, N-[(4,6-dimethylpyridin-2-yl)methyl]-4-{(1R)-1-[(5R)-5-methyl-6-oxo-6,7-dihydro-5H-pyrrolo[2,3-d]pyrimidin-5-yl]ethyl}benzamide] | 0.0977 ± 0.00276
11 | Cc1cc(CNC(=O)c2ccc([C@@H](C)[C@@]3(C)C(=O)Nc4ncccc43)cn2)cc(C2CC2)n1 [Example 9, N-[(2-cyclopropyl-6-methylpyridin-4-yl)methyl]-5-{(1R)-1-[(3R)-3-methyl-2-oxo-2,3-dihydro-1H-pyrrolo[2,3-b]pyridin-3-yl]ethyl}pyridine-2-carboxamide] | 0.0245
12 | Cc1cc(CNC(=O)c2ccc([C@@H](C)[C@@]3(C)C(=O)Nc4ncncc43)cn2)cc(C)n1 [Example 10, N-[(2,6-dimethyl-4-pyridyl)methyl]-5-[(1R)-1-[(5R)-5-methyl-6-oxo-7H-pyrrolo[2,3-d]pyrimidin-5-yl]ethyl]pyridine-2-carboxamide] | 0.198 ± 0.0459
13 | Cc1cc(C#N)nc(CNC(=O)c2ccc([C@@H](C)[C@@]3(C)C(=O)Nc4ncccc43)cc2)c1 [Example 11, N-[(6-cyano-4-methyl-2-pyridyl)methyl]-4-[(1R)-1-[(3R)-3-methyl-2-oxo-1H-pyrrolo[2,3-b]pyridin-3-yl]ethyl]benzamide] | 0.0404
14 | Cc1cc(C)nc(CNC(=O)c2ccc([C@@H](C)[C@@]3(C)C(=O)Nc4ncccc43)cc2)c1 [Example 12, N-[(4,6-dimethylpyridin-2-yl)methyl]-4-{(1R)-1-[(3R)-3-methyl-2-oxo-2,3-dihydro-1H-pyrrolo[2,3-]pyridin-3-yl]ethyl}benzamide] | 0.0428 ± 0.013
15 | CCc1cc(CNC(=O)c2ccc([C@@H](C)[C@@]3(C)C(=O)Nc4ncccc43)cn2)cc(C)n1 [Example 13, N-[(2-ethyl-6-methylpyridin-4-yl)methyl]-5-{(1R)-1-[(3R)-3-methyl-2-oxo-2,3-dihydro-1H-pyrrolo[2,3-b]pyridin-3-yl]ethyl}pyridine-2-carboxamide] | 0.0453 ± 0.00153
16 | Cc1cc(CNC(=O)c2ccc([C@@H](C)[C@@]3(C)C(=O)Nc4ncccc43)cc2)cc(C(C)C)n1 [Example 14, 4-{(1R)-1-[(3R)-3-methyl-2-oxo-2,3-dihydro-1H-pyrrolo[2,3-b]pyridin-3-yl]ethyl}-N-{[2-methyl-6-(propan-2-yl)pyridin-4-yl]methyl}benzamide] | 0.026
17 | Cc1cc(C)nc(CNC(=O)c2ccc([C@@H](C)[C@@]3(C)C(=O)Nc4ncccc43)cn2)c1 [Example 15, N-[(4,6-dimethylpyridin-2-yl)methyl]-5-{(1R)-1-[(3R)-3-methyl-2-oxo-2,3-dihydro-1H-pyrrolo[2,3-b]pyridin-3-yl]ethyl}pyridine-2-carboxamide] | 0.171 ± 0.0339
18 | Cc1cc(CNC(=O)c2ccc([C@@H](C)[C@@]3(C)C(=O)Nc4ncccc43)cc2)cc(C#N)n1 [Example 16, N-[(2-cyano-6-methylpyridin-4-yl)methyl]-4-{(1R)-1-[(3R)-3-methyl-2-oxo-2,3-dihydro-1H-pyrrolo[2,3-b]pyridin-3-yl]ethyl}benzamide] | 0.813
